Measured values reported in patent US6680199B1, “In vitro activation of mammalian oocytes” (Infigen, Inc., priority 1993, dated 2004).
Marks after values point to notes of the source that are not given here.

How the values were obtained:
[1] = tested on: 20-hours oocytes derived nuclear transfers; assay: Development of 20-hour oocyte derived nuclear transfers (fused after activation); format: cell-based, bovine; conditions: treatment at 20 hours maturation after enucleation, 4 hours DMAP with or without ionomycin 5 μM 4 min
Experimental: This experiment was conducted under similar conditions as Experiment 6 with the exception that the oocytes were either placed directly in DMAP (young oocytes) or given in ionomycin (5 μM) treatment for 4 minutes plus DMAP treatment immediately after enucleation, i.e., at 20 hours maturation. At the end of the DMAP treatment, approximately 24 hours, embryonic cells were transferred into the oocytes and electrofusion was induced. The concentration of activating chemicals used were the same as those described in Experiment 6. The embryos were placed in maturation medium CR1aa for 6 to 7 days to determine developmental rates to blastocyst stage.

[2] = tested on: 42-hour oocyte derived nuclear transfer (NT) embryos; assay: Development of 42-hour oocyte derived nuclear transfer embryos; format: cell-based, bovine; conditions: 1.9 mM DMAP with room temperature activation (RTC) 2 hours; 140 NTs to culture; 6 to 7 days
Experimental: Bovine oocytes were obtained and placed in maturation media for approximately 20 hours. The cumulus cells were then stripped off the oocytes according to the previously described procedures.
The oocytes were then enucleated according to Prather et al. and placed in CR1aa maturation medium until 40 hours had elapsed. The oocyte were then placed in CR1aa maturation medium with 1.9 mM DMAP for 2 hours and incubated at room temperature activation (RTC) conditions (about 25° C.).
Following incubation, embryonic cells were transferred into the oocytes and the 2 cells were electrically fused together according to the procedures described in Prather et al., with the exception of the step of waiting until 42 hours to activate via RTC (25° C.) and adding DMAP prior to the time of electrofusion. The fused nuclear transfer embryos were then cultured in maturation medium CR1aa for 6 to 7 days to determine developmental rates to the blastocyst stage.

[3] = tested on: bovine oocytes matured for 24 hours; assay: Parthenogenic activation of in vitro matured bovine oocytes (activation, pronuclear formation); format: cell-based; conditions: for Activation of oocytes, result in words / Chromosome / pronuclear outcome, result in words: Experiment 1, 5 hours of culture, FIG. 1b-1d; for % Activation / % Pronuclear formation: oocytes matured 24 h, ionomycin 5 μM 4 min and/or DMAP for 5 hours, determined after 5 hours of culture
Experimental: Bovine oocytes were obtained at an abattoir and transported to the laboratory in saline (30-34° C., transport time 2-6 hr). Oocytes from small follicles (1-6 mm) were aspirated and matured according to the methods described in Sirard et al., 1988. Briefly, oocytes were diluted out of the follicular fluid with 3 dilutions of TL HEPES modified by removing glucose, adding 0.22 mM pyruvate and 1 mg/ml of BSA (Fraction V, Sigma Chemical CO, St. Louis, Mo.).
The oocytes were placed in 50 μl drops of TCM-199 (Earle's Salts; Gibco, Grand Island, N.Y.) supplemented with 10% heat treated fetal calf serum, 0.22 mM pyruvate, 5 μg/ml FSH-P (Scherring-Plough Animal Health Corp., Kenilworth, N.J.) and 1 μ/ml estradiol. Ten oocytes were incubated in a 50 μl drop under paraffin oil for 24 hours at 39° C. in 5% CO2 in air humidified atmosphere.
(§1) The cumulus was removed from matured oocytes by vortexing vigorously in 200 μl or TL-HEPES for 3 min. The denuded oocytes were diluted in 3 changes of TL-HEPES to separate the oocytes from the cumulus cells. Where indicated, the oocytes were exposed to 5 μM ionomycin (5 mM stock in DMSO; Calbiochem, La Jolla, Calif.) in TL-HEPES (1 mg/ml fatty acid free BSA) for 4 min. The oocytes were then diluted into TL-HEPES (30 mg/ml fatty acid BSA) for 5 min followed by dilution into TL-HEPES (1 mg/ml Fraction V BSA). The oocytes were then moved to 50 μl drops of embryonic cell development media (U.S. Pat. No. 5,096,822 to Rosenkrans et al., with or without DMAP (1.9 mM) for the indicated times (39° C., 5% CO2 in air). Embryonic cell development media contained 114.6 mM NaCl, 3.1 mM KCl, 5 mM hemi-calcium lactate, 0.4 mM Na pyruvate, 1 mM glutamine, 3 mg/ml fatty acid free BSA, MEM nonessential amino acids and BME amino acids.
Activation was evaluated at times indicated in each experiment. The oocytes were mounted on slides, fixed with acetic acid:alcohol (1:3) and observed with Nomarski optics. Special care was taken in determining if metaphase plates were metaphase II or aberrant metaphase III (Kubiak, 1989). Oocytes that contained a metaphase I or II plate were considered not activated. Oocytes that contained anaphase, telophase or metaphase […] plates or pronuclei were considered to be activated.
Experiment 1 determined the effect of sequential exposure of oocytes to ionomycin and DMAP. One level of ionomycin (5 μM) and DMAP (1.9 mM) was used throughout all studies. The oocytes were cultured for 5 hours after ionomycin incubation with or without DMAP. Control oocytes were cultured in embryonic cell development medium alone. Activation was determined after 5 hours of culture. […]
Experiment 3 was designed to determine the kinetics of activation when oocytes were exposed to ionomycin alone or to ionomycin followed by a 3 hour incubation in DMAP. At the end of the 3 hour incubation, oocytes in DMAP were diluted in TL-HEPES (1 mg/ml Fraction V BSA) and moved to embryonic cell development medium until mounting. A sample of oocytes from both treatments were mounted at 1, 2, 3, 4 and 5 hours after exposure to ionomycin to determine the activation state.
Experiment 4 was designed to determine the time at which DMAP is necessary for parthenogenic activation relative to the exposure to ionomycin. The oocytes were exposed to ionomycin and placed in embryonic cell development medium. At 0, 1, 2, 2.5, 3 and 4 hours after ionomycin exposure, oocytes were placed in embryonic cell development medium+DMAP. At 5 hours post ionomycin exposure, the oocytes were mounted to determine their activation state.

[4] = tested on: bovine oocytes matured for 24 hours; assay: Parthenogenic development of activated oocytes (initial cleavage, blastocyst, blastocyst cell number); format: cell-based; conditions: for Development to Blastocyst (± se): after ionomycin 5 μM, day 7-8 of culture; for cell number in resulting parthenote blastocysts, Good / cell number in resulting parthenote blastocysts, Poor: after ionomycin
Experimental: as §1
In experiments that determined development potential of the parthenotes, activated oocytes were cultured for 7-8 days in embryonic cell development media. On the date after activation, initial cleavage was determined by visual observation. On day 4 of incubation 5% heat treated fetal calf serum was added to each drop. For some experiments, blastocysts were mounted and fixed in acetic acid:alcohol (1:3) and stained with 1% orcein dissolved in 40% acetic acid to determine cell numbers.
Experiments 2a and 2b determined the effect of time of incubation in DMAP on activation and development. In Experiment 2a, oocytes were incubated in DMAP for 15, 30, 60, 150 and 300 minutes. At the end of the incubation time indicated, oocytes were rinsed in TL-HEPES (1 mg/ml Fraction V BSA) and placed into embryonic cell development medium until 5 hours had elapsed. At 5 hours, a subsample of oocytes was removed and mounted to determine activation. The remaining oocytes were returned to the incubator for 7-8 days. Blastocytes on day 7-8 were rated as good or poor and cell number was determined.
Experiment 2b was similar in design except that oocytes were incubated for 2 hours, 3 hours, 4 hours, or 5 hours in DMAP.

[5] = Experiment 3, FIG. 2, time after exposure to ionomycin

CN(C)c1ncnc2nc[nH]c12 [DMAP, 6-dimethylaminopurine]
% Usable ([1]; cultured 6 to 7 days): 0%
Development Rate to Blastocyst ([1]; cultured 6 to 7 days): 0%
Cleavage Rate ([1]; fused after activation): 4%
Number Blastocyst [2]: 40
Number Blastocyst, percent [2]: 29%
Number Usable Blastocyst [2]: 18
Number Usable Blastocyst, percent [2]: 13%
Activation of oocytes, result in words [3]: did not activate the oocytes
Chromosome / pronuclear outcome, result in words [3]: caused the chromosomes to form a tight clump in the cytoplasm
Effect of interval from ionomycin treatment to exposure to DMAP, result in words ([3]; Experiment 4, FIG. 3, interval more than 1 hour, mounted 5 hours post ionomycin): increase in ability to resume meiosis
% Activation [3]: 7.8 ± 5.5^a %
% Pronuclear formation [3]: 7.8 ± 5.5^a %
Development to Blastocyst (± se) ([4]; Experiment 2b, DMAP incubation 0 h (ionomycin alone)): 0^a %
Development to Blastocyst (± se) ([4]; 6-DMAP 1.9 mM incubation 15 min): 0^a %
Development to Blastocyst (± se) ([4]; 6-DMAP 1.9 mM incubation 30 min): 0^a %
Development to Blastocyst (± se) ([4]; 6-DMAP incubation 0 min (ionomycin alone)): 0^a %
cell number in resulting parthenote blastocysts, Good ([4]; DMAP incubation 2 h): 88.7
cell number in resulting parthenote blastocysts, Good ([4]; DMAP incubation 3 h): 70.1
cell number in resulting parthenote blastocysts, Poor ([4]; DMAP incubation 3 h): 33.1
cell number in resulting parthenote blastocysts, Good ([4]; DMAP incubation 4 h): 73.6
cell number in resulting parthenote blastocysts, Poor ([4]; DMAP incubation 4 h): 40.1
cell number in resulting parthenote blastocysts, Good ([4]; DMAP incubation 5 h): 83.7
cell number in resulting parthenote blastocysts, Poor ([4]; DMAP incubation 5 h): 44

C[C@H](CCC(=O)O)C[C@H](C)C[C@H](C)C(=O)/C=C(\O)[C@H](C)C[C@H](C)C/C=C/[C@@H](C)[C@@H](O)[C@@H](C)[C@@H](O)C[C@@H]1CC[C@@](C)([C@H]2CC[C@@](C)([C@@H](C)O)O2)O1 [Ionomycin, ionomycin]
Activation of oocytes, result in words [3]: activated the oocytes to a high level
Chromosome / pronuclear outcome, result in words [3]: instead of forming pronuclei the chromosomes reassembled into a metaphase plate
Time by which oocytes had resumed meiosis [3, 5]: ≤ 1 h
Time by which oocytes were arrested in metaphase III [3, 5]: 4 to 5 h
% Activation [3]: 57.8 ± 7.8^b %
% Pronuclear formation [3]: 8.9 ± 7.3^a %
